Here are results for 2 compounds from patent US6342487B1, “Compositions containing at least one farnesyl transferase inhibitor and at least one topoisomerase inhibitor and compositions containing at least one farnesyl transferase inhibitor and at least one taxoid” (Aventis Pharma Rorer S.A., priority 1998, dated 2002).

One data set concerns human colon tumor HCT116. The experiment in a line: Activity on the colon tumor HCT116 grafted by the subcutaneous route onto female nu/nu Swiss mice. In kind it is in vivo. The procedure:
This efficacy can be quantified, for example, by the net log 10 of the killed cells which is determined according to the following formula:
net log 10 of the killed cells=[T-C (days)−duration of the treatment (days)]/[3.32·Td]
in which T-C represents the delay in tumor growth which is the median time, in days, which the tumors of the treated group (T) and the tumors of the control group (C) took to reach a predetermined value (1 g for example) and Td represents the time, in days, necessary for the doubling of the volume of the tumor in the control animals [T. H. CORBETT et al., Cancer, 40, 2660-2680 (1977); F. M. SCHABEL et al., Cancer Drug Development, Part B, Methods in Cancer Research, 17, 3-51, New York, Academic Press Inc. (1979)].
A product is considered as very active if net log 10 of the killed cells is greater than or equal to 2.8. […] In such a case, the net log 10 of the killed cells has a positive value.
The combination, used at its own maximum tolerated dose, in which each of the constituents will be present at a dose which is generally lower than or equal to its maximum tolerated dose, will show a therapeutic synergy when the net log 10 of the killed cells is higher than the value of the net log 10 of the killed cells of the better constituent when it is administered alone.
The efficacy of the combinations on solid tumors can be determined experimentally in the following manner:
The animals subjected to the experiment, generally mice, are grafted bilaterally by the subcutaneous route with 30 to 60 mg of a tumor fragment on day 0. In the case of treatment of advanced tumors, the tumors are allowed to develop to the desired size, the animals having insufficiently developed tumors being eliminated. The selected animals are divided as a function of their tumor weight in a homogeneous manner between the treated and control groups, before the start of the treatments. Chemotherapy generally commences 12 to 14 days after the implantation of the tumor and the animals are observed every day. The different groups of animals are weighed every day until the maximum loss of weight is reached and then the groups are weighed at least once per week until the end of the test. The tumors are measured 2 to 3 times per week, with the aid of a slide calliper, according to two measurements in mm which are then converted into tumor weight according to the following formula: […]
The tumors are measured two or three times per week until the tumor reaches approximately 2 g or until the death of the animal if this occurs before the tumor reaches 2 g. An autopsy is carried out on the animals at the time of sacrifice.
The antitumor activity is determined as a function of the different parameters recorded.

Data set [1] is described as follows: Toxicity of the combination of product A with irinotecan. In kind it is in vivo. The following applies: in combination with the topoisomerase inhibitor irinotecan.
Setting [2] is: Table 1, tumor doubling time 3.4 days, doses 25 and 248 mg/kg per injection, days 14, 18, 22 (2x/d.) and 25-36 (2x/d.).
The mark [3] stands for this setting: Table 1, tumor doubling time 3.4 days, doses 25 and 400 mg/kg per injection, days 14, 18, 22 (2x/d.) and 25-36 (2x/d.).
Setting [4] is: Table 1, tumor doubling time 3.4 days, doses 25 and 645 mg/kg per injection, days 14, 18, 22 (2x/d.) and 25-36 (2x/d.).
Setting [5] is: Table 1, tumor doubling time 3.4 days, doses 41 and 248 mg/kg per injection, days 14, 18, 22 (2x/d.) and 25-36 (2x/d.).
Setting [6] is: Table 1, tumor doubling time 3.4 days, doses 41 and 400 mg/kg per injection, days 14, 18, 22 (2x/d.) and 25-36 (2x/d.).
The mark [7] stands for this setting: Table 1, tumor doubling time 3.4 days, doses 41 and 645 mg/kg per injection, days 14, 18, 22 (2x/d.) and 25-36 (2x/d.).
The mark [8] stands for this setting: Table 2, tumor doubling time 4.5 days, 11.2 mg/kg per injection, days 14, 18, 22 (2x/d.).
Where [9] appears, read: Table 2, tumor doubling time 4.5 days, 18.7 mg/kg per injection, days 14, 18, 22 (2x/d.).
Setting [10] is: Table 2, tumor doubling time 4.5 days, 31.2 mg/kg per injection, days 14, 18, 22 (2x/d.).
[11] abbreviates: Table 2, tumor doubling time 4.5 days, 52.0 mg/kg per injection, days 14, 18, 22 (2x/d.).
Where [12] appears, read: Table 1, tumor doubling time 3.4 days, 248 mg/kg per injection, days 14-25 (2x/d.).
Where [13] appears, read: Table 1, tumor doubling time 3.4 days, 400 mg/kg per injection, days 14-25 (2x/d.).
[14] abbreviates: Table 1, tumor doubling time 3.4 days, 645 mg/kg per injection, days 14-25 (2x/d.).
Where [15] appears, read: Table 2, tumor doubling time 4.5 days, 645 mg/kg per injection, days 14-25 (2x/d.).

SMILES strings stand for the structures.

On to `CCc1c2c(nc3ccc(OC(=O)N4CCC(N5CCCCC5)CC4)cc13)-c1cc3c(c(=O)n1C2)COC(=O)[C@]3(O)CC` [Irinotecan, irinotecan], for which the “(T-C)-(Duration of treatment)” value is reported as 19.1 days in the data set with human colon tumor HCT116 (setting [2]); 55.9 days with human colon tumor HCT116 (setting [6]); 8.3 days in the data set with human colon tumor HCT116 (setting [8]); 19.5 days in the data set on human colon tumor HCT116 (setting [11]); “toxic” with human colon tumor HCT116 (mouse, in vivo, 86 mg/kg). The “Long-term survivors on day 154” value with human colon tumor HCT116 (setting [2]) is on record as 1/6; with human colon tumor HCT116 (setting [3]), 2/7; in the data set on human colon tumor HCT116 (setting [4]), 3/8; in the data set with human colon tumor HCT116 (setting [5]) it was 4/8; in the data set with human colon tumor HCT116 (setting [6]), 4/7; in the data set with human colon tumor HCT116 (setting [7]), 4/8. Moreover, the “Long-term survivors on day 154” value in the data set with human colon tumor HCT116 (setting [9]), with human colon tumor HCT116 (setting [10]) and with human colon tumor HCT116 (setting [11]) was 0/5 in each case. In addition, the “net log10 of killed cells” value came to 1.7 in the data set with human colon tumor HCT116 (setting [2]); 3.3 in the data set on human colon tumor HCT116 (setting [3]); 3.6 in the data set with human colon tumor HCT116 (setting [4]); 3.3 in the data set with human colon tumor HCT116 (setting [5]); 5.0 with human colon tumor HCT116 (setting [6]); 3.4 in the data set with human colon tumor HCT116 (setting [7]). The “net log10 of killed cells” value came to 0.6 in the data set on human colon tumor HCT116 (setting [8]), 1.1 in the data set with human colon tumor HCT116 (setting [9]), 1.0 in the data set with human colon tumor HCT116 (setting [10]) and 1.3 in the data set with human colon tumor HCT116 (setting [11]).

Take `C=C(C(=O)N1C[C@@H]2[C@]3(c4ccc(C)cc4)CC[C@@H](c4ccccc43)[C@]2(C(=O)O)C1)c1ccccc1OC` (racemic) [A, (3aRS,4SR,9SR,9aRS)-4,9-ethano-2-[2-(2-methoxyphenyl)propenoyl]-9-(4-methylphenyl)-2,3,3a,4,9,9a-hexahydro-1H-benzo[f]isoindole-3a-carboxylic acid]: in data set [1], the “toxicity in combination with irinotecan” value is listed as “does not increase the toxicity of irinotecan”. The “(T-C)-(Duration of treatment)” value with human colon tumor HCT116 (setting [12]) is -10.9 days; with human colon tumor HCT116 (setting [13]) it was -4.2 days; in the data set on human colon tumor HCT116 (setting [14]), -2.7 days; in the data set on human colon tumor HCT116 (setting [15]), 6.9 days. For the same compound, the “Long-term survivors on day 154” value in the data set on human colon tumor HCT116 (setting [12]) is 0/6; in the data set with human colon tumor HCT116 (setting [13]), 0/6; in the data set with human colon tumor HCT116 (setting [14]) it was 0/6; with human colon tumor HCT116 (setting [15]), 0/5. For the same compound, the “net log10 of killed cells” value is −1.0 in the data set with human colon tumor HCT116 (setting [12]), −0.4 with human colon tumor HCT116 (setting [13]), −0.2 with human colon tumor HCT116 (setting [14]) and 0.5 in the data set with human colon tumor HCT116 (setting [15]).
